Assay results as given in US6812222B1, “Biocompatible aqueous solution for use in continuous ambulatory peritoneal dialysis” (priority 1995, dated 2004).
Where two headings read alike, the source gives them in different places.

Legend:
[1] = test system: chemically induced inflammatory bowel reaction with bowel wall thickening or fibrosis; experiment: Colon fibrosis (weight of 8 cm of colon) after intrarectal TNB/ethanol in rats; type: in vivo; conditions: for Colon fibrosis (as measured by weight of 8 cm of colon), mean ± SEM: rats
Description: In animal models of inflammatory bowel disease the colon becomes fribrotic, as does the peritoneum as a result of chronic intraperitoneal dialysis. […] It is to be expected that in a similar manner NAG will prevent the development of fibrosis of the peritoneum in CAPD patients. [table]

[2] = test system: peritoneal membrane; type: in vivo, rats; conditions: for Hyaluronic Acid in Dialysate Fluid / Mass Transfer Area Coef for Urea / Peritoneal Clearance of Urea: 4 hours dwell; for Net Ultrafiltration: pH 7.35-7.4, 4 hours dwell, 20 mL infused
Protocol: In experiments in which rats were dialyzed for 4 hours with Hanks Balances salt solution with either glucose or N-acetylglucosamine added at a concentration of 75 mM or 214 mM, at a pH of 7.35-7.4. The net utrafiltration was calculated as the difference between the drained volume of dialysate after 4 hours dwell time in the peritoneal cavity and the infused volume (20 mL) of the dialysis fluid. As well, the concentration of urea and creatinine in the blood and the dialysis fluid were measured. Permeability of the peritoneal membrane to urea and creatinine, expressed as the Mass Transfer Area Coefficient which was calculated according to the method of Krediet et al (Blood Purif 4: 194, 1986). […] In addition, the inclusion of NAG in the dialysate fluid stimulated the synthesis of hyaluronic acid, as shown by the more than 100% increase in amount of hyaluronic acid secreted in the dialysis fluid compared to the glucose treated rats.

[3] = test system: human mesothelial cells; experiment: Stimulation of hyaluronic acid in tissue culture of human mesothelial cells; type: cell-based
[4] = 7.5% solution; cited from earlier work
[5] = versus glucose, rats dialyzed 4 hours

| Compound | Colon fibrosis (as measured by weight of 8 cm of colon), mean ± SEM ([1]; 25 mg NAG/kg BWt intrarectal 1 hr before TNB/EtOH) [gm] | Colon fibrosis (as measured by weight of 8 cm of colon), mean ± SEM ([1]; 50 mg NAG/kg BWt intrarectal 1 hr before TNB/EtOH) [gm] | Colon fibrosis (as measured by weight of 8 cm of colon), mean ± SEM ([1]; 100 mg NAG/kg BWt intrarectal 1 hr before TNB/EtOH) [gm] | Fibrotic reaction to the inflammatory stimulus ([1]; solution of NAG administered into the bowel of rats) | Hyaluronic Acid in Dialysate Fluid ([2]; 75 mM in dialysis fluid) [µg/L] | Mass Transfer Area Coef for Urea ([2]; 75 mM in dialysis fluid) [mL/min] | Peritoneal Clearance of Urea ([2]; 75 mM in dialysis fluid) [mL/min] | Net Ultrafiltration ([2]; 75 mM in dialysis fluid) [mL/4 hrs] | Hyaluronic Acid in Dialysate Fluid ([2]; 214 mM in dialysis fluid) [µg/L] | Mass Transfer Area Coef for Urea ([2]; 214 mM in dialysis fluid) [mL/min] | Peritoneal Clearance of Urea ([2]; 214 mM in dialysis fluid) [mL/min] | Net Ultrafiltration ([2]; 214 mM in dialysis fluid) [mL/4 hrs] | Increase in amount of hyaluronic acid secreted in the dialysis fluid ([2]; compared to the glucose treated rats) | Albumin or total protein loss into the dialysis fluid (in words) ([2]; rat, in vivo) | Net ultrafiltration (in words) [2, 5] | Peritoneal clearance of urea (in words) [2, 5] | Stimulation of hyaluronic acid [3] | Osmolality [4] [mOsm/kg] | pH of solution [4] |
| --- | --- | --- | --- | --- | --- | --- | --- | --- | --- | --- | --- | --- | --- | --- | --- | --- | --- | --- | --- |
| CC(=O)N[C@H]1C(O)O[C@H](CO)[C@@H](O)[C@@H]1O (stereo partly shown) [NAG, N-acetylglucosamine] | 1.669 ± 0.142 | 1.339 ± 0.155 | 1.150 ± 0.068 | reduces in a dose dependent manner | 226 ± 93 | 0.287 ± 0.13 | 18.4 ± 2.1 | −0.11 ± 1.6 | 217 | 0.262 ± 0.15 | 30.0 | 14.45 | more than 100% | without increasing | statistically significant increase | statistically significant increase | stimulation of hyaluronic acid by N-acetylglucosamine was confirmed |  |  |
| Icodextrin |  |  |  |  |  |  |  |  |  |  |  |  |  |  |  |  |  | 282 | 5.3 |
